Measurements published in patent publication US20110195845A1, “Constructs for Expressing Herbicide Tolerance Genes, Related Plants, and Related Trait Combinations” (Dow AgroSciences LLC, priority 2008, published 2011).

Assays:
PAT (pDAS1942) corn = test: T2 corn response to glufosinate applied postemergence; type: in vivo; settings: 14DAT
Wildtype Arabidopsis = test: Arabidopsis response to glufosinate applied postemergence; type: in vivo, Arabidopsis thaliana; settings: for % Injury Ave / individuals with % Injury 20-40% / individuals with % Injury <20% / individuals with % Injury >40%: 2 WAT
Experimental: Seven days after planting (DAP) and again 11 DAP, T1 plants (cotyledon and 2-4-1f stage, respectively) were sprayed with a 0.016% solution of 2,4-D herbicide (456 g ae/L 2,4-D Amine 4, Dow AgroSciences LLC, Indianapolis, Ind.) at a spray volume of 10 ml/tray (703 L/ha) using a DeVilbiss compressed air spray tip to deliver an effective rate of 50 g ae/ha 2,4-D DMA per application. Survivors (plants actively growing) were identified 4-7 days after the final spraying and transplanted individually into 3-inch pots prepared with potting media (Metro Mix 360). Transplanted plants were covered with humidity domes for 3-4 days and placed in a 22° C. growth chamber as before or moved to directly to the greenhouse. Domes were subsequently removed and plants reared in the greenhouse (22±5° C., 50±30% RH, 14 h light:10 dark, minimum 500 μE/m^2s^1 natural+supplemental light) at least 1 day prior to testing for the ability of DSM-2 (v2) to provide glufosinate herbicide resistance.
T1 plants were then randomly assigned to various rates of glufosinate. For Arabidopsis 140 g ai/ha glufosinate is an effective dose to distinguish sensitive plants from ones with meaningful levels of resistance. Elevated rates were also applied to determine relative levels of resistance (280, 560, or 1120 g ai/ha).
All glufosinate herbicide applications were applied by track sprayer in a 187 L/ha spray volume. The commercial Liberty™ formulation (200 g ai/L, Bayer Crop Science, Research Triangle Park, N.C.).
The first Arabidopsis transformations were conducted using DSM-2 (v2) (plant optimized gene). T1 transformants were first selected from the background of untransformed seed using a 2,4-D DMA selection scheme. Over 100,000 T1 seed were screened and 260 2,4-D resistant plants (AAD-12 gene) were identified, equating to a transformation/selection frequency of 0.26% which is slightly higher than the normal range of selection frequency of constructs where AAD-12+2,4-D are used for selection. T1 plants selected above were subsequently transplanted to individual pots and sprayed with various rates of commercial glufosinate herbicide. Table 10 compares the response of DSM-2 (v2) and control genes to impart glufosinate resistance to Arabidopsis T1 transformants. Response is presented in terms of % visual injury 2 WAT. […] Since each T1 is an independent transformation event, one can expect significant variation of individual T1 responses within a given rate. An arithmetic mean and standard deviation is presented for each treatment. Untransformed-wildtype Arabidopsis served as a glufosinate sensitive control. The DSM-2 (v2) gene imparted herbicide resistance to individual T1 Arabidopsis plants. Within a given treatment, the level of plant response varied greatly and can be attributed to the fact each plant represents an independent transformation event. Of important note, at above 140 g ai/ha glufosinate, there were individuals that were unaffected while some were severely affected.

[1] = tested on: WT corn (5× H751× Hi II control plants); test: Corn response to glufosinate applied postemergence; type: in vivo; settings: 14DAT
Source text: The seed from the cross of T1 DSM-2 (v2)×5× H751 were planted into 4-inch pots containing Metro Mix media and at 2 leaf stage were sprayed in the track sprayer set to 187 L/ha at 560 g ai/ha glufosinate to remove nulls. At 7 DAT nulls were removed and resistant plants were sprayed in the track sprayer as above at the following rates: 0, 560, 1120, 2240, and 4480 g ai/ha glufosinate. Plants were graded at 3 and 14 DAT and compared to 5× H751× Hi II control plants.

[2] = tested on: Escherichia coli BL21-Star (DE3) with empty pET vector; test: Complementation of cell growth on glufosinate, empty pET vector (control); type: cell-based; design: key: +++ = Heavy Lawn Growth; ++ = Light lawn growth; + = patchy lawn growth; −− = No Growth; settings: 24 hrs @28 C, 20 uM IPTG
Source text: A pET28a(+) expression plasmid containing PAT (v3) was constructed as a positive control. PAT (v3) was cloned as an NcoI-SacI fragment into corresponding restriction sites of pDAB779. Positive clones containing the PAT (v3) gene fragment were verified via restriction enzyme digestion. This construct was labeled as pDAB4434.
The plasmids, pDAB4434, pDAB4412, and an empty pET vector (control) were transformed into Escherichia coli BL21-Star (DE3) bacterial cells. Expression cultures were initiated with 10-200 freshly transformed colonies into 250 mL LB medium containing 50 μg/ml antibiotic and 75 μM IPTG (isopropyl-[…]). The cultures were grown at 28° C. for 24 hours at 180-200 rpm. Five microliters of the culture was inoculated onto a complex media control and minimal media containing incrementally increasing concentrations of glufosinate and 20 μM IPTG. The cultures were dispersed evenly over the plates and incubated at 28° C. for 24 hours.

[3] = 560 g ai/ha glufosinate postemergence
[4] = 1120 g ai/ha glufosinate postemergence
[5] = 2240 g ai/ha glufosinate postemergence
[6] = 4480 g ai/ha glufosinate postemergence
[7] = 140 g ai/ha glufosinate postemergence
[8] = 280 g ai/ha glufosinate postemergence

CP(=O)(O)CCC(N)C(=O)O (stereo not shown) [glufosinate]
% Injury Ave (PAT (pDAS1942) corn; [3]): 6% | individuals with % Injury <20% (PAT (pDAS1942) corn; [3]): 4 | individuals with % Injury >40% (PAT (pDAS1942) corn; [4]): 3 | % Injury Ave (PAT (pDAS1942) corn; [5]): 25% | individuals with % Injury 20-40% (PAT (pDAS1942) corn; [5]): 1 | individuals with % Injury <20% (PAT (pDAS1942) corn; [5]): 2 | individuals with % Injury >40% (PAT (pDAS1942) corn; [5]): 1 | individuals with % Injury <20% (PAT (pDAS1942) corn; [6]): 0 | % Injury Ave (Wildtype Arabidopsis; [7]): 98.0% | individuals with % Injury 20-40% (Wildtype Arabidopsis; [7]): 0 | individuals with % Injury <20% (Wildtype Arabidopsis; [7]): 0 | individuals with % Injury >40% (Wildtype Arabidopsis; [7]): 10 | % Injury Ave (Wildtype Arabidopsis; [8]): 100.0% | individuals with % Injury 20-40% (Wildtype Arabidopsis; [8]): 0 | individuals with % Injury <20% (Wildtype Arabidopsis; [8]): 0 | individuals with % Injury >40% (Wildtype Arabidopsis; [8]): 10 | % Injury Ave (Wildtype Arabidopsis; [3]): 100.0% | individuals with % Injury 20-40% (Wildtype Arabidopsis; [3]): 0 | individuals with % Injury <20% (Wildtype Arabidopsis; [3]): 0 | individuals with % Injury >40% (Wildtype Arabidopsis; [3]): 10 | % Injury Ave (Wildtype Arabidopsis; [4]): 100.0% | individuals with % Injury 20-40% (Wildtype Arabidopsis; [4]): 0 | individuals with % Injury <20% (Wildtype Arabidopsis; [4]): 0 | individuals with % Injury >40% (Wildtype Arabidopsis; [4]): 10 | effective dose to distinguish sensitive plants from ones with meaningful levels of resistance (Wildtype Arabidopsis; Arabidopsis): 140 g ai/ha | % Injury Ave [1, 3]: 100% | individuals with % Injury 20-40% [1, 3]: 0 | individuals with % Injury <20% [1, 3]: 0 | individuals with % Injury >40% [1, 3]: 4 | % Injury Ave [1, 4]: 100% | individuals with % Injury 20-40% [1, 4]: 0 | individuals with % Injury <20% [1, 4]: 0 | individuals with % Injury >40% [1, 4]: 4 | % Injury Ave [1, 5]: 100% | individuals with % Injury 20-40% [1, 5]: 0 | individuals with % Injury <20% [1, 5]: 0 | individuals with % Injury >40% [1, 5]: 4 | % Injury Ave [1, 6]: 100% | individuals with % Injury 20-40% [1, 6]: 0 | individuals with % Injury <20% [1, 6]: 0 | individuals with % Injury >40% [1, 6]: 4 | bacterial growth on minimal media ([2]; 250 μg/ml BASTA): −− | bacterial growth on minimal media ([2]; 500 μg/ml BASTA): −− | bacterial growth on minimal media ([2]; 1000 μg/ml BASTA): −− | bacterial growth on minimal media ([2]; 2000 μg/ml BASTA): −− | bacterial growth on minimal media ([2]; 4000 μg/ml BASTA): −−
